US8193373B2, “Therapeutic compounds” (Allergan, Inc., priority 2006, dated 2012)
pEC50, pKi: −log10 of the molar value.

Experiments:
EP2 receptor [1] = molecular target: T1, EP2 receptor (Homo sapiens, UniProt P43116); assay: Binding at the EP2 receptor (assays described in WO 2005/044501)
From the text: (§1) The compound above has the following activity at the EP2 receptor according to the assays described in WO 2005/044501.

EP2 receptor [2] = molecular target: T1, EP2 receptor; assay: cAMP assay at the EP2 receptor (assays described in WO 2005/044501); assay type: cell-based
From the text: as §1

T1 sequence (P43116 whole entry): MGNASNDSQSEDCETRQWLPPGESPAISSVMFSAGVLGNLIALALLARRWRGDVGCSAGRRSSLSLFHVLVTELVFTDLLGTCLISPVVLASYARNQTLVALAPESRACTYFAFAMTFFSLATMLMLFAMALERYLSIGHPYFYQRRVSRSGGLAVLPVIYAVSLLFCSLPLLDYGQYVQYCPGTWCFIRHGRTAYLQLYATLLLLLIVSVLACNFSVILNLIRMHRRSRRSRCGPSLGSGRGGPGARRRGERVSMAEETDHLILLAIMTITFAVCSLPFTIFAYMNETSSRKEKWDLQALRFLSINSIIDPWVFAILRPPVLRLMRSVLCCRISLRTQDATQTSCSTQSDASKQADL

pKi (EP2 receptor [1]): 6.94
pEC50 (EP2 receptor [2]): 8.52
SMILES: N#C[C@@H]1C[C@@H](O)[C@H](/C=C/CC(O)C2(Cc3ccc(Cl)s3)CCC2)[C@H]1C/C=C\CCCC(=O)O (stereo partly drawn) [(Z)-7-((1S,2R,3R,5R)-2-((E)-4-(1-((5-chlorothiophen-2-yl)methyl)cyclobutyl)-4-hydroxybut-1-enyl)-5-cyano-3-hydroxycyclopentyl)hept-5-enoic acid]
